assay: Human HepG2 cell viability assay in 384 well format; format: toxicity, cell-based; design: dose 125 nL, time 70.5 hour; cytotoxicity at 70.5 h: concentration not given beside the values; details: HepG2 cells, read-out: Inhibition

Compound | cytotoxicity at 70.5 h [%]
CS(=O)(=O)N1CCC(n2nnn(-c3ccccc3)c2=O)CC1 | -1.71
Oc1nc(C2CC2)nc2c1nnn2C1CCN(Cc2ccoc2)CC1 | -6.55
COCCN1CCCC(c2ccnc3c(C(N)=O)cnn23)C1 (centres undefined) | 3.17
COCC(=O)N(C)Cc1nc(N(C)C)ncc1-c1ccncc1 | -11.3
O=C(C1CC1)N1C[C@H]2CCCN(S(=O)(=O)c3ccc4c(c3)CCC4)[C@H]2C1 | 3.41
CN(C)c1ncc(-c2ccncc2)c(CCNC(=O)C2CC2)n1 | -5.57
CCc1ccccc1NC(=O)NCc1nnc(SC)n1C | -5.85
COc1ccccc1NC(=O)NCc1nnc(SC)n1C | -5.92
CSc1nnc(CNC(=O)Nc2ccccc2Br)n1C | -3.94
Cc1cnc(-c2nc(C3CCN(Cc4ccccc4C)CC3)no2)cn1 | -8.63
Cn1cc(C2=NOC(C(=O)NC3(c4cccc(F)c4)CCCC3)C2)cn1 (centres undefined) | -4.3
CCn1cc(S(=O)(=O)NCC(c2ccccc2)N2CCOCC2)c(C)n1 (centres undefined) | 18.1
O=C(Nc1ccc2c(c1)OCCO2)c1ccc(=O)[nH]n1 | 15.5
COCCC(=O)N1CCCC([C@@H]2C[C@H](C(F)F)n3ncnc3N2)C1 (some centres undefined) | -4.06
CC(=O)N1CCCC1c1ccc(Br)cn1 (centres undefined) | 1.79
Cn1ncc2ccc(C3CCCN(C(=O)Cc4cccs4)C3)nc21 (centres undefined) | 13.1
Cn1ccc(C(=O)NCC2(O)CCN(c3cnccn3)C2)n1 (centres undefined) | -1.53
COc1ccc(F)cc1C(=O)N1C[C@H]2C[C@H](OC)C[C@H]2C1 | -6.25
CO[C@H]1C[C@@H]2CN(C(=O)Cc3ccc(C)s3)C[C@@H]2C1 | -2.91
CCn1ncc(S(=O)(=O)N[C@@H]2CC[C@@H](n3ccnc3C)[C@@H]2O)c1C | -5.15
CO[C@@H]1CC[C@@H](NC(=O)c2ccc(OCCN3CCCC3)cc2)[C@H]1O | -4.63
CO[C@H]1CN(Cc2nc3ccccc3n2C)C[C@@]12CCCO2 | 7.3

Compound | cytotoxicity at 70.5 h [%]
Cc1cccc(C2CCCN(S(=O)(=O)c3cccnc3)C2)n1 (centres undefined) | -2.36
CCN(CC)C(=O)c1cc(C2(C)CCN(C(C)=O)CC2)nc(C)n1 | 4.01
Cc1c[nH]c(C2CCCN(C(=O)CCc3c(C)n[nH]c3C)C2)n1 (centres undefined) | -2.32
Cc1cccc(CN2CCCC(c3nccs3)C2)n1 (centres undefined) | -1.28
Cn1cc(C(=O)N2C[C@H]3C[C@H](Oc4ccccc4)C[C@H]3C2)cn1 | -3.01
Cc1c[nH]nc1C1CCCN(c2cnccn2)C1 (centres undefined) | -2.27
O=C1NC2(CCc3ccccc31)CCN(C(=O)c1ccncc1)C2 (centres undefined) | -3.88
Cc1cnc(CC2COCCN(C(=O)c3cncs3)C2)cn1 (centres undefined) | -1.74
COc1ccc2c(c1)CC(C1CCOCC1)N(C(=O)c1ccnn1C)C2 (centres undefined) | -0.842
Cn1cccc1C(=O)N1CCCC1c1ccc(CN2CCOCC2)cn1 (centres undefined) | -1.35
Cc1c(S(=O)(=O)N2CCCC2c2nnc(-c3ccsc3)o2)cnn1C (centres undefined) | 0.227
O=C(c1cnc(C2CC2)nc1)N1CCCC(c2nccs2)C1 (centres undefined) | 27.6
c1ccc(OCCN2CCC(c3cnccn3)CC2)cc1 | 3.59
Cc1cc(C)c2nc(C)c(C(=O)N3CCC(N4CCCC4)CC3)cc2c1 | -0.523
CN1CCOC(C)(C(=O)Nc2nc(C(C)(C)C)cs2)C1 (centres undefined) | 13.5
c1cc(C2CCN(C3CCCCC3)C2)n[nH]1 (centres undefined) | 2
CN(C)[C@@H]1CN(Cc2ccccn2)C[C@H]1c1cn(C)c2ccccc12 | 12
CN(C)[C@@H]1CN(Cc2ccccc2O)C[C@H]1c1cn(C)c2ccccc12 | 44.4
CNCc1ccc([C@@H]2CN(C(C)=O)C[C@H]2C(=O)N(C)C)cc1 | -1.57
Cc1nc(NC(=O)C2(C)CN(C)CCO2)sc1C (centres undefined) | -2.07
CCc1ncc(CN(CCc2ccccc2)Cc2cccs2)cn1 | -2.18
Cn1cc(CN2CCC(c3cc(COc4cccc(Cl)c4)[nH]n3)C2)cn1 (centres undefined) | -0.141

— ChEMBL document CHEMBL3507680, “University of Dundee, Gates Library screen for HepG2 cell viability”
